5 substances from patent US20250009660A1, “LIPID COMPOUND, LIPOSOME, EXOSOME, LIPID NANOPARTICLE, AND DRUG DELIVERY SYSTEM” (NAGASAKI UNIVERSITY, priority 2021, published 2025) can be followed below.

Entries after “also recorded” stand apart in the source; their conditions may differ.

One assay relates to C26. Nature of the assay: Evaluation of cell binding properties / cell uptake of modified liposome. Type of assay: cell-based, Mouse. To be noted: C26 cells; for cell uptake (cell binding properties): rhodamine-labeled liposome modified with the lipid compound (FIG. 13). From the text:
(§1) The liposome was modified with a lipid compound by a post-modification method using NanoAssemblr (nano pharmaceutical production apparatus; manufactured by Precision NanoSystems Inc.).

Another assay has as its system NIH3T3. Described as above. Type of assay: cell-based, Mouse. Particulars: NIH3T3 cells; for cell uptake (cell binding properties): rhodamine-labeled liposome modified with the lipid compound (FIG. 13).
Source text: as §1

Where [1] appears, read: liposome modified with the lipid, compared with KK-(EK)4 lipid-modified liposome (FIG. 15).

For K-(EK)4-dipalmitoyllysine [K1], the “cell uptake (cell binding properties)” value with C26 and with NIH3T3 was “an increase in cell uptake was observed compared with the unmodified liposome” each time.

Regarding KK-(EK)4-dipalmitoyllysine [K2], the “cell uptake (cell binding properties)” value with C26 was “an increase in cell uptake was observed compared with the unmodified liposome; also recorded: In comparison with K1, the uptake of K2 increased in all of the cells”; in the assay with NIH3T3 it was “an increase in cell uptake was observed compared with the unmodified liposome; also recorded: In comparison with K1, the uptake of K2 increased in all of the cells”.

Turning to KKK-(EK)4-dipalmitoyllysine [K3], the “cell uptake (cell binding properties)” value was “an increase in cell uptake was observed compared with the unmodified liposome; also recorded: the uptake of K3 and K4 when compared with K2 was the same” with C26; “an increase in cell uptake was observed compared with the unmodified liposome; also recorded: the uptake of K3 and K4 when compared with K2 was the same” with NIH3T3.

KKKK-(EK)4-dipalmitoyllysine [K4]: the “cell uptake (cell binding properties)” value in the assay on C26 is “an increase in cell uptake was observed compared with the unmodified liposome; also recorded: the uptake of K3 and K4 when compared with K2 was the same”; in the assay on NIH3T3 it was “an increase in cell uptake was observed compared with the unmodified liposome; also recorded: the uptake of K3 and K4 when compared with K2 was the same”.

For the substance “RR-(EK)4-dipalmitoyllysine [RR-(EK)4 lipid]”, the cell binding properties entry in the assay with C26 (setting [1]) and in the assay with NIH3T3 (setting [1]) was “the same cell binding properties were exhibited” throughout.
